Assay results taken from paper PMC5706701, “Development of a homogenous high-throughput assay for inositol hexakisphosphate kinase 1 activity” (PLoS ONE, 2017).
Counter-ions that a name gives are not always drawn. Like-named read-outs stand apart in the source and are kept apart here. Each block holds one molecule with its values, some of them ahead of it.

Columns and labels:
Assay type in all cases: biochemical
human IP6K2 = target: T1, human IP6K2 (Homo sapiens, UniProt Q9UHH9); assay: IP6K2 inhibition dose-response assay (ADP-Glo Max)
T1 construct: GST (N, cleaved yes); made in house; host or cells: C43 E. coli, pGEX-6P-2
T1 sequence (Q9UHH9 1-426): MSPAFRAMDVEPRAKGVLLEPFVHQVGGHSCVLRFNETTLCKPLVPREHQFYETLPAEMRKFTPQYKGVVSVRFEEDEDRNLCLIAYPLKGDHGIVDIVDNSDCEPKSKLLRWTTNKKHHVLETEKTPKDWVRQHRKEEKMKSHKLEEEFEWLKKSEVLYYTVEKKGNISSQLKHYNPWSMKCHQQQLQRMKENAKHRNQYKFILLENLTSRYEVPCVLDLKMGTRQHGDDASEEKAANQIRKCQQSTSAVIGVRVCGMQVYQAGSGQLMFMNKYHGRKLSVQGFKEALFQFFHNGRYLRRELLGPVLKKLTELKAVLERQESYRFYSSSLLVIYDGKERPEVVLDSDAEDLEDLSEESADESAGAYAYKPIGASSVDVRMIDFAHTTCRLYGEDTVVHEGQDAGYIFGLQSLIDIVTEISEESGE
Method: (§1) Human IP6K1 (NCBI accession# Q92551), human IP6K2 (NCBI accession# Q9UHH9), and human IP6K3 (NCBI accession# Q96PC2) were purified from C43 E. coli transformed with pGEX-6P-2 expression vector containing GST tagged IP6K1, IP6K2, or IP6K3. The bacteria were grown overnight in a starter culture containing LB (Lennox) and 100μg/mL ampicillin (Sigma). The starter culture was diluted 1:100 into LB (Lennox) and allowed to grow to an optical density of 0.8 at 37°C when protein expression was induced with 1mM IPTG (Calbiochem) for 5hrs. The cells were pelleted with 3000RCF at 4°C and frozen at -80°C. Later, the bacteria was re-suspended in lysis buffer (20mM Tris, 200mM NaCl, 5mM DTT, 1% Triton-X, 0.5% IPEGAL, 1mg/mL lysozyme, and 1 protease inhibitor tablet (Sigma) per 100mL buffer, pH 7.4) and rotated on an end over end shaker for 30 min at 4°C followed by sonication. […]
(§2) For the dose response assays, 7–10 serial 3-fold compound dilutions were prepared in DMSO and then each compound was diluted with assay buffer (50mM Tris, 10mM MgCl2, 2.5mM DTT, 0.02% Triton X-100, pH 6.9) to reach the desired inhibitor concentrations in 25% DMSO. […] Luminescence generated was read on a Tecan Infinite M100 Pro plate reader. Samples were run in quadruplicate and the data was analyzed using a […] variable slope inhibition parameter on GraphPad Prism 7. […]

Human IP6K1 [1] = target: T2, Human IP6K1 (Homo sapiens, UniProt Q92551); assay: IP6K1 high-throughput screen of the Sigma LOPAC (ADP-Glo Max, single point)
T2 construct: GST (N, cleaved yes); made in house; host or cells: C43 E. coli, pGEX-6P-2

human IP6K3 = target: T3, human IP6K3 (Homo sapiens, UniProt Q96PC2); assay: IP6K3 inhibition dose-response assay (ADP-Glo Max)
T3 construct: GST (N, cleaved yes); made in house; host or cells: C43 E. coli, pGEX-6P-2
T3 sequence (Q96PC2 1-410): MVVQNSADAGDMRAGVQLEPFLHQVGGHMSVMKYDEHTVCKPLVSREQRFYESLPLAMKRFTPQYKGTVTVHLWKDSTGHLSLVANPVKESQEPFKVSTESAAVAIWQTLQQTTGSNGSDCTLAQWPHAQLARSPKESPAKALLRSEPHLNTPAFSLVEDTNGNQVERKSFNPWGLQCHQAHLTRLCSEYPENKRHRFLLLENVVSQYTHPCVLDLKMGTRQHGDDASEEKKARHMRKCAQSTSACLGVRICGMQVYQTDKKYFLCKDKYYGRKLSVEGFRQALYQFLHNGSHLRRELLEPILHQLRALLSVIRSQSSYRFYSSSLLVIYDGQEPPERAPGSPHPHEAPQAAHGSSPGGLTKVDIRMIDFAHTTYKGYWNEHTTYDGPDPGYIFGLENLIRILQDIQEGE
Method: as §1, §2

Human IP6K1 [2] = target: T2, Human IP6K1; assay: Inositol polyphosphate separation by PAGE (5PP-IP5 production by IP6K1); conditions: 10μM inhibitor, 1mM ATP, 250μM IP6, 60nM IP6K1, 2 hours, 37°C
Human IP6K1 [3] = target: T2, Human IP6K1; assay: IP6K1 inhibition dose-response assay (ADP-Glo Max)
[4] = system: enzymes involved in the detection steps of the kit; assay: Counter-screen against the detection steps of the ADP-Glo Max kit (no enzyme, no IP6); conditions: 10μM compound, 25μM ADP and 975μM ATP
Method: The Sigma LOPAC was obtained as 10mM DMSO stock solutions from the Johns Hopkins ChemCore facility. Each compound was first diluted to 50μM and 25% DMSO in assay buffer. The inhibition assay was performed as described above with 1μL of compound and 4μL of kinase master mix so that the final compound concentration was 10μM in 5% DMSO. […] Hits were determined based by the Z score, which is calculated as Z = (Xi-Xavg)/Sx, where Xi is the raw measurement on the i^th compound, Xavg and Sx are the mean and the standard deviation, respectively, of all measurements within the plate. Hits identified from the screen were repeated in the assay in quadruplicate for confirmation. These confirmed hits were then tested to determine if they inhibited the enzymes involved in the detection steps of the kit. Possible interference of the compounds was assessed by measuring the degree to which they inhibited the signal produced by a 25μM ADP in the presence of 975μM ATP. This experiment was run as described above for the inhibition assays in the absence of enzyme and IP6.

[5] = LOPAC single-point screen, ADP-Glo Max luminescence raw signal per well
[6] = LOPAC single-point screen, Z-score relative to plate average and StDev
[7] = Sigma LOPAC single-point screen, ADP-Glo Max raw signal per well
[8] = Sigma LOPAC single-point screen, Z-score from plate average and StDev
[9] = LOPAC single-point screen, ADP-Glo Max raw signal per well
[10] = LOPAC single-point screen, Z-score against plate average and StDev
[11] = LOPAC single-point screen, Z-score from raw signal with plate average and StDev

T2 sequence (Q92551 whole entry): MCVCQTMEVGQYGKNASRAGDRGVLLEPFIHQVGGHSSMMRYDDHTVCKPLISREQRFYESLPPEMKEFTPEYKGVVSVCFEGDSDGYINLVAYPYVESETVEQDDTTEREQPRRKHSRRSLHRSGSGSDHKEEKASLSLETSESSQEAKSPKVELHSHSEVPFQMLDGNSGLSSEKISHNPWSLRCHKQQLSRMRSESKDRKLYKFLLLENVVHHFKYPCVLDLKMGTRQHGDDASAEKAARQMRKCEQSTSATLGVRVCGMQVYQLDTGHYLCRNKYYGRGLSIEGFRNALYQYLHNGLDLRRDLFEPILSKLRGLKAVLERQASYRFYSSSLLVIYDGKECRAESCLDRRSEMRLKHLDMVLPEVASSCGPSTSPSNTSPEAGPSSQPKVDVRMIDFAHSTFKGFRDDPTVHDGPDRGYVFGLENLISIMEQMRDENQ

Compound: NC(Cc1cc(O)c(O)cc1O)C(=O)O (racemic) [6-Hydroxy-DL-Dopa]
IC50 (human IP6K2): 1.66 ± 1.06 µM
Raw Signal (Human IP6K1 [1]; [5]): 10170
Z-score (Human IP6K1 [1]; [6]): -9.138
IC50 (human IP6K3): 11.1 ± 1.13 µM
Inhibition of 5PP-IP5 production by IP6K1 (PAGE, Toluidine Blue) (Human IP6K1 [2]): inhibited below the limit of detection
IC50 (Human IP6K1 [3]): 1840 ± 1030 nM
Signal loss in counter-screen of detection steps [4]: neither TNP nor 6-Hydroxy-DL-Dopa showed significant signal loss

IC50 (human IP6K2; 1mM ATP, 100μM IP6, 7.5nM IP6K2, 30 minutes, 37°C, read-out: IC50 IP6K2): 23.4 ± 1.1 µM
Raw Signal (Human IP6K1 [1]; [5]): 8540
Inhibition of enzyme activity in initial LOPAC screen (Human IP6K1 [1]; single point 100μM compound, 62.5μM ATP): 100%
IC50 (human IP6K3; 1mM ATP, 100μM IP6, 120nM IP6K3, 120 minutes, 37°C, read-out: IC50 IP6K3): 4.93 ± 1.14 µM
Compound: O=c1c(O)c(-c2cc(O)c(O)c(O)c2)oc2cc(O)cc(O)c12 [Myricetin]
Signal loss in counter-screen of detection steps [4]: significantly inhibit the secondary reagents

Compound: N=C(N)SCCc1cnc[nH]1 [Imetit dihydrobromide]
Raw Signal (Human IP6K1 [1]): 60718
Z-score (Human IP6K1 [1]): 1.063

Compound: C[C@@]12C(=O)OC(=O)[C@]1(C)[C@H]1CC[C@@H]2O1 [Cantharidin]
Raw Signal (Human IP6K1 [1]; [7]): 61165
Z-score (Human IP6K1 [1]; [8]): 0.5727

Raw Signal (Human IP6K1 [1]; [5]): 52228
Z-score (Human IP6K1 [1]; [6]): -1.0013
Compound: C[N+]1(C)[C@@H]2CC[C@H]1C[C@@H](OC(=O)C(CO)c1ccccc1)C2 (some centres unmarked) [Atropine methyl bromide]

Raw Signal (Human IP6K1 [1]; [5]): 51759
Z-score (Human IP6K1 [1]; [6]): -0.6921
Compound: NCCc1c[nH]cn1 [Histamine dihydrochloride]

Raw Signal (Human IP6K1 [1]; [7]): 62612
Z-score (Human IP6K1 [1]; [8]): 0.8276
Compound: CN/C(=N/CCSCc1nc[nH]c1C)NC#N [Cimetidine]

Raw Signal (Human IP6K1 [1]; [5]): 49153
Z-score (Human IP6K1 [1]; [6]): -0.8805
Compound: CC(C(=O)O)c1ccc(CC2CCCC2=O)cc1 (centres unmarked) [loxoprofen]

Raw Signal (Human IP6K1 [1]; [7]): 57817
Z-score (Human IP6K1 [1]; [8]): 0.5382
Compound: COc1cc2nc(N3CCN(C(=O)C4COc5ccccc5O4)CC3)nc(N)c2cc1OC (centres unmarked) [Doxazosin mesylate]

Compound: C#CCN1C(C)=C(C(=O)OC)C(c2cccc([N+](=O)[O-])c2)C(C(=O)OCC)=C1C (centres unmarked) [MRS 1845]
Raw Signal (Human IP6K1 [1]; [9]): 54765
Z-score (Human IP6K1 [1]; [10]): 0.06242

Raw Signal (Human IP6K1 [1]; [9]): 55439
Z-score (Human IP6K1 [1]; [11]): -0.4358
Compound: C[C@H]1C[C@H]2[C@@H]3CCC4=CC(=O)C=C[C@]4(C)[C@@]3(Cl)[C@@H](O)C[C@]2(C)[C@@]1(O)C(=O)CO [Beclomethasone]

Raw Signal (Human IP6K1 [1]; [7]): 62144
Z-score (Human IP6K1 [1]; [8]): 0.7452
Compound: C[N+](C)(C)CC(=O)O [Betaine hydrochloride]

Compound: CP(=O)(O)C1=CCNCC1 [TPMPA]
Raw Signal (Human IP6K1 [1]; [7]): 59668
Z-score (Human IP6K1 [1]; [8]): 0.708

Raw Signal (Human IP6K1 [1]; [5]): 55002
Z-score (Human IP6K1 [1]; [6]): -0.5127
Compound: Nc1ccc2c3c(cccc13)C(=O)NC2=O [4-Amino-1,8-naphthalimide]

Compound: C=CCN1CC[C@]23c4c5ccc(O)c4O[C@H]2C(=O)CC[C@@]3(O)[C@H]1C5 [Naloxone hydrochloride]
Raw Signal (Human IP6K1 [1]; [9]): 55041
Z-score (Human IP6K1 [1]; [10]): 0.1088

Compound: COc1ccccc1NC(=O)Nc1nc(-c2cccnc2)nc2ccccc12 [VUF 5574]
Raw Signal (Human IP6K1 [1]; [7]): 58097
Z-score (Human IP6K1 [1]; [8]): 0.4028

Raw Signal (Human IP6K1 [1]; [7]): 58645
Z-score (Human IP6K1 [1]; [8]): 0.7063
Compound: Fc1ccc(C(c2ccc(F)cc2)N2CCN(C/C=C/c3ccccc3)CC2)cc1 [Flunarizine dihydrochloride]

Compound: C[N+](C)(C)CCCCCC[N+](C)(C)C [Hexamethonium bromide]
Raw Signal (Human IP6K1 [1]; [9]): 55496
Z-score (Human IP6K1 [1]; [10]): 0.06681

Compound: CCN1C[C@]2(C)CC[C@H](O)[C@]34C1[C@@H](C[C@H]23)[C@@]1(O)C[C@H](OC)[C@H]2C[C@@H]4[C@@H]1[C@H]2O [Karakoline]
Raw Signal (Human IP6K1 [1]; [9]): 53043
Z-score (Human IP6K1 [1]; [11]): -0.2269

Compound: CNCCNS(=O)(=O)c1cccc2cnccc12.Cl.Cl [H-8 dihydrochloride]
Raw Signal (Human IP6K1 [1]; [9]): 53425
Z-score (Human IP6K1 [1]; [11]): -0.1627

Compound: N[C@H](C(=O)O)c1cc(O)no1 (racemic) [(±)-Ibotenic acid]
Raw Signal (Human IP6K1 [1]; [7]): 57640
Z-score (Human IP6K1 [1]; [8]): 0.5455

Raw Signal (Human IP6K1 [1]; [7]): 57086
Z-score (Human IP6K1 [1]; [8]): 0.4524
Compound: CC(C)Cc1ccc(C(C)C(=O)O)cc1 (racemic) [(±)-Ibuprofen]

Compound: Cc1nc(N=Nc2ccc(C(=O)O)cc2)c(COP(=O)(O)O)c(C=O)c1O [MRS 2159]
Raw Signal (Human IP6K1 [1]; [5]): 51283
Z-score (Human IP6K1 [1]; [6]): -0.5226

Compound: Cc1cc(NC(=O)Nc2ccc3c(ccn3C)c2)sn1 [SB 204741]
Raw Signal (Human IP6K1 [1]; [9]): 55947
Z-score (Human IP6K1 [1]; [11]): -0.3463
